Like-named read-outs stand apart in the source and are kept apart here.
What was measured:
human DHRS9 = molecular target: T1, human DHRS9 (Homo sapiens, UniProt Q9BPW9); assay: Cellular model of oxidation of 3α-diol by DHRS9: inhibition of 3α-diol conversion to DHT, followed via AR transactivation (luciferase reporter) in DHRS9-transfected PALM cells; format: cell-based; settings: read-out: inhibition of 3α-diol conversion
T1 construct: expressed in transfected cells; host or cells: PALM cells (PC-3 stably co-transfected with human androgen receptor and pMMTV-neo-Luc)
Description: (§1) The cDNA coding for human DHRS9 was sub-cloned into a pcDNA3.1/zeo expression vector. This was then transfected into a cell line denoted PALM, standing for PC-3 Androgen receptor Luciferase MMTV. This cell line originates from PC-3 cells which have been stably co-transfected by the expression vector coding for the human androgen receptor (pSG5-puro-h androgen receptor (AR)) and by the reporter gene vector coding for luciferase (pMMTV-neo-Luc), the promoter for which has AR response elements.
(§2) The activity of conversion of 3α-diol to DHT by DHRS9 can thus be followed via AR transactivation.

[1] = system: human androgen receptor (AR); assay: Dose-response of the 3α-diol substrate for AR transactivation in PALM cells (PC-3 Androgen receptor Luciferase MMTV); format: cell-based
Description: as §1, §2

T1 sequence (Q9BPW9 18-319): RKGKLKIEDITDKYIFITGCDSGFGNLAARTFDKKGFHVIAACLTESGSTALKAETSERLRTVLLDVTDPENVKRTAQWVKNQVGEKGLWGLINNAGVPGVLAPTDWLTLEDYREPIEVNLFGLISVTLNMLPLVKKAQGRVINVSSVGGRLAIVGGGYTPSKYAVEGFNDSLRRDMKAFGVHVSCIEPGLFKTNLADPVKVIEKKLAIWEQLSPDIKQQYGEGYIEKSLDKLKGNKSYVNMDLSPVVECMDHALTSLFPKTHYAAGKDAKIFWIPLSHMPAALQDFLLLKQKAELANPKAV

Q: `CC(C)=CCCC(C)=CC=O` (racemic) [citral, Citral] was tested. Which inhibition at 100 µM (human DHRS9) did it give?
A: 86%

Q: For `C[C@]12CC[C@@H](O)C[C@@H]1CC[C@@H]1[C@@H]2CC[C@]2(C)[C@@H](O)CC[C@@H]12` [3α-diol, 3α-androstanediol], which AC50 ([1]; cells transfected with DHRS9) is on record?
A: 19 nM

Q: And the AC50 ([1]; non-transfected cells)?
A: 189 nM

Q: `CC1(C)[C@@H](OC(=O)CCC(=O)O)CC[C@]2(C)[C@H]3C(=O)C=C4[C@@H]5C[C@@](C)(C(=O)O)CC[C@]5(C)CC[C@@]4(C)[C@]3(C)CC[C@@H]12` [carbenoxolone, Carbenoxolone] was tested. Which inhibition at 100 µM (human DHRS9; concentration of 100 μM, PALM cells transfected with DHRS9) did it give?
A: 35%

Reference: patent US20100168231A1, “TARGET ENZYME FOR THE TREATMENT OF ACNE” (GALDERMA RESEARCH & DEVELOPMENT, priority 2007, published 2010)
